Numbered stars: 1 amine (or outer) side, 2 acyl side, 3 side chain; on linkers, the order of the positions; unused ones are H or OH. Square brackets hold non-standard residues; d marks the D form. Peptide text beside a SMILES is read from it. * marks the point of attachment. ξ: configuration not given here. Dolaproine(all-ξ) = COC(C(C)C(=O)[*:2])C1CCCN1[*:1]; Dolaproine = CO[C@@H]([C@@H]1CCCN1)[C@@H](C)C(=O)O; Hexanoyl(6-maleimido) = O=C1C=CC(=O)N1CCCCCC(=O)*; X1 = CC(C)[C@@H](C(=O)[*:2])N(C)C[C@@H](C)N[*:1]; Dil = CC[C@H](C)[C@H](NC)[C@@H](CC(=O)O)OC; X2 = CCC(C)C(C(CC(=O)[*:2])OC)N(C)[*:1]; X5 = CC(C)[C@@H](C(=O)*)N(C)C[C@@H](C)N; X4 = CC(C)[C@@H](C(=O)*)N(C)C[C@H](C)N; Cit = NC(=O)NCCC[CH](N)C(=O)O; NMeV = CN[CH](C(=O)O)C(C)C; ξCit = NC(=O)NCCCC(N)C(=O)O; X3 = CC(N*)C(O)c1ccccc1; Me2Gly = CN(C)CC(=O)*
Assays:
[1] = test system: HT1080 Cells; assay: Active Cellular Cytotoxic (ACC) molecules efficacy in HT1080 cells in vitro assay; format: cell-based; conditions: Homo sapiens, HT-1080, 96 h, four days incubation, Prestoblue, average error of 38%
Experimental: Method: Plate cells one day prior to start of assay in 96 well black with clear bottom plates (Corning #3603), 2×10^4 cells per well in 100 μL of standard growth media (according to ATCC). Grow cells to 90% confluency.
Before start of assay rinse cells 1× with DPBS. Add compounds in a 3-fold serial dilution in triplicate (range e.g. 40 μM-18 nM), 100 μL per well in standard growth media.
Incubate four days then assay cell viability as described below. Remove media and rinse 1× with DPBS, then add 100 μL per well 10% Prestoblue Cell viability reagent (Thermo Fisher Scientific #A13261) in complete media. Return to incubator for two hours then read plate on SpectraMax M2e, bottom read excitation 555 emission 585 cut-off 570 which measures number of live cells. Cell viability was plotted versus compound concentration and data were fit to Log inhibitor vs response curve in GraphPad Prism and EC50 were determined.
Table 14 provides cellular activity data for exemplary ACCs (compound EC50 for reduction of viable cells).

[2] = test system: HT-1080 human fibrosarcoma tumor xenograft; assay: HT-1080 human fibrosarcoma tumor xenograft therapeutic model; format: in vivo, athymic nude mice; conditions: 0.6 to 3.0 mg/kg of cytotoxic agent component, IV on days 0 and 3, tumor volume at day 9
Experimental: Female athymic nude mice (8-10 weeks old) purchased from Charles River (Wilmington, 01887, MA) were used after 4-7 day of acclimatization period. Institutional Animal Care and Use Committee (IACUC) approved protocols #EB11-002-009-1 and CP-17-09. HT-1080 human fibrosarcoma tumor cells from ATCC (CCL-121™) were grown using standard cell culture techniques. Tumor cells (1×10^8 tumor cells/mL) were suspended in DPBS/Matrigel™ (1:1 vol) and implanted subcutaneously (50 μL tumor cell suspension/mouse) into the upper mammary fat pad or right flank of mice with individual identification number (ear tag). Four to seven days later when the average tumor volume was about 50-100 mm^3, mice were randomized into different experimental groups to have similar averaged (Mean±SEM) tumor volume and dosed with (i) vehicle and (ii) different doses of test compounds. Each group typically had 4 mice. For each involved tumor-bearing mouse, the tumor volume (mm^3) was measured using a caliper and calculated as follows: tumor volume=width^2×length/2. Test compounds were administered intravenously (tail vein) twice (two administrations 3 days apart) in conscious restrained tumor-bearing mice throughout the study. Individual tumor volume, body weight as well as clinical signs were recorded during the study. Each study was terminated on day 12 post-dosing initiation. Mice were euthanized by intracardiac ketamine-xylazine overdose after recording the last individual body weight and tumor volume. For each experimental group and study day, the tumor volumes from all mice were averaged and expressed as Mean±SD. In order to directly and objectively compare anti-tumor activity of candidate SDM's, tumor volume was assessed at the same Day 9 timepoint (6 days after the cessation of test compound administration) for each experimental cohort of test compound-treated group(s) and vehicle. Graphs show tumor volume in cubic millimeters versus time. […] Compound administration is indicated by downward arrow over data point on day 0 and 3.

CC[C@H](C)[C@@H]([C@@H](CC(=O)N1CCC[C@H]1[C@H](OC)[C@@H](C)C(=O)N[C@@H](Cc1ccccc1)C(=O)O)OC)N(C)C(=O)[C@@H](NC(=O)[C@H](C(C)C)N(C)C[C@@H](C)NC(=O)CN)C(C)C [ACC-8] (H-G[X1]V[Dil][Dolaproine]F-OH)
EC50 [1]: 910 nM

CC[C@H](C)[C@@H]([C@@H](CC(=O)N1CCC[C@H]1[C@H](OC)[C@@H](C)C(=O)N[C@@H](Cc1ccccc1)C(=O)O)OC)N(C)C(=O)[C@@H](NC(=O)[C@H](C(C)C)N(C)C(=O)CNC)C(C)C [ACC-4] (HELM PEPTIDE1{[Sar].[meV].V.[CC[C@H](C)[C@@H]([C@@H](CC(=O)[*:2])OC)N(C)[*:1]].[CO[C@H]([C@@H](C)C(=O)[*:2])[C@@H]1CCCN1[*:1]].F}$$$$V2.0)
EC50 [1]: 4400 nM

CCC(C)C(C(CC(=O)N1CCCC1C(OC)C(C)C(=O)NC(C)C(O)c1ccccc1)OC)N(C)C(=O)C(NC(=O)C(C(C)C)N(C)C(=O)CNC(=O)C(CCCNC(N)=O)NC(=O)C(NC(=O)CCCCCN1C(=O)C=CC1=O)C(C)C)C(C)C (stereo not drawn) [SDM-320, maleimidocaproyl-valine-citrulline-GlyMMAE] ({Hexanoyl(6-maleimido)}-V[Cit]G[NMeV]V[X2][Dolaproine(all-ξ)]-X3; configuration not given here)
Efficacy (percent tumor growth inhibition versus vehicle) [2]: Low (Low: <29% inhibition)

CC[C@H](C)[C@@H]([C@@H](CC(=O)N1CCC[C@H]1[C@H](OC)[C@@H](C)C(=O)N[C@@H](Cc1ccccc1)C(=O)NC)OC)N(C)C(=O)[C@@H](NC(=O)[C@H](C(C)C)N(C)C(=O)CNC(=O)[C@H](CCCNC(N)=O)NC(=O)[C@@H](NC(=O)CCCCCN1C(=O)C=CC1=O)C(C)C)C(C)C [SDM-380] ({Hexanoyl(6-maleimido)}-V[Cit]G[NMeV]V[Dil][Dolaproine]F-NHMe)
Efficacy (percent tumor growth inhibition versus vehicle) [2]: Low (Low: <29% inhibition)

CC[C@H](C)[C@@H]([C@@H](CC(=O)N1CCC[C@H]1[C@H](OC)[C@@H](C)C(=O)N[C@@H](Cc1ccccc1)C(=O)O)OC)N(C)C(=O)[C@@H](NC(=O)[C@H](C(C)C)N(C)C(=O)CN)C(C)C [ACC-5] (HELM PEPTIDE1{G.[meV].V.[CC[C@H](C)[C@@H]([C@@H](CC(=O)[*:2])OC)N(C)[*:1]].[CO[C@H]([C@@H](C)C(=O)[*:2])[C@@H]1CCCN1[*:1]].F}$$$$V2.0)
EC50 [1]: 710 nM

CC[C@H](C)[C@@H]([C@@H](CC(=O)N1CCC[C@H]1[C@H](OC)[C@@H](C)C(=O)N[C@@H](Cc1ccccc1)C(=O)O)OC)N(C)C(=O)[C@@H](NC(=O)[C@H](C(C)C)N(C)C[C@@H](C)N)C(C)C [ACC-10] (X5-V[Dil][Dolaproine]F-OH)
EC50 [1]: 1020 nM

CC[C@H](C)[C@@H]([C@@H](CC(=O)N1CCC[C@H]1[C@H](OC)[C@@H](C)C(=O)N[C@@H](Cc1ccccc1)C(=O)O)OC)N(C)C(=O)[C@@H](NC(=O)[C@H](C(C)C)N(C)C(=O)CN(C)C)C(C)C [ACC-1] (Me2Gly-[NMeV]V[Dil][Dolaproine]F-OH)
EC50 [1]: 2100 nM

CC[C@H](C)[C@@H]([C@@H](CC(=O)N1CCC[C@H]1[C@H](OC)[C@@H](C)C(=O)N[C@@H](Cc1ccccc1)C(=O)OC)OC)N(C)C(=O)[C@@H](NC(=O)[C@H](C(C)C)N(C)C[C@@H](C)NC(=O)C(CCCNC(N)=O)NC(=O)[C@@H](NC(=O)CCCCCN1C(=O)C=CC1=O)C(C)C)C(C)C (stereo partly drawn) [SDM-344] ({Hexanoyl(6-maleimido)}-V[ξCit][X1]V[Dil][Dolaproine]F-OMe)
Efficacy (percent tumor growth inhibition versus vehicle) [2]: Medium (Medium: ≥29% inhibition to <80% inhibition)

CC[C@H](C)[C@@H]([C@@H](CC(=O)N1CCC[C@H]1[C@H](OC)[C@@H](C)C(=O)N[C@@H](Cc1ccccc1)C(=O)O)OC)N(C)C(=O)[C@@H](NC(=O)[C@H](C(C)C)N(C)C[C@H](C)N)C(C)C [ACC-11] (X4-V[Dil][Dolaproine]F-OH)
EC50 [1]: 1740 nM

— patent US20210079039A1, “COMPOSITIONS AND METHODS FOR THE SELECTIVE DELIVERY OF THERAPEUTIC AND IMAGING AGENTS” (Avelas Biosciences, Inc., priority 2018, published 2021)
